# Source: patent US20240409890A1, “UFMYLATION INHIBITION TO TARGET TAUOPATHY IN HUMAN NEURONS” (priority 2023, published 2024)
# Experiments:
# Format in all cases: cell-based, human
# [1] = tested on: hM4Di-expressing 4R-P301S neurons; assay: Calcium imaging of acute neuronal silencing by CNO; conditions: upon addition of CNO
# Protocol: 4R-P301S-HaloTag iPSCs were differentiated into neurons on coverslips as described. Neurons were transduced with hSyn-jGCaMP8f lentivirus on D6. This lentiviral construct was made using the 3rd generation lentiviral plasmid FUGW (Addgene, 14883), where the PacI+EcoRI fragment was replaced by the hSyn-GCaMP8f fragment (Zhang et al., 2023). pGP-AAV-hSyn-jGCaMP8f-WPRE was a gift from GENIE Project (Addgene, 162376). The medium was changed on D7, and neurons were seeded with […] K18-tau fibrils. Neurons were maintained as described until imaging at 4 and 5 weeks old. On the day of imaging, JFX-549 HaloTag ligand (HHMI Janelia) was diluted into fresh maturation medium to […], and one-fifth of neuronal medium was replaced with diluted ligand (200 nM final ligand concentration). Cells were incubated at 37° C. for 15 minutes. An equal volume of medium was replaced with half-fresh medium, and half-conditioned medium from a control well. […] Fluorescence time-lapse images were collected on a Nikon FN1 microscope using a 60×, 1.0 NA objective (CFI APO 60XW NIR, Nikon) and a C-FL GFP filter cube. […]
# 4R-P301S-HaloTag iPSCs were differentiated into neurons on coverslips as described. […] For MC1 quantification, stained neurons were imaged with a fluorescence microscope (Keyence BZ-X710). […] Neurons were perfused with 10 μM CNO at 60 seconds and calcium traces in one field were recorded for 400 seconds.
# [2] = tested on: hM4Di-expressing K18-seeded 4R-P301S-HaloTag neurons; assay: DREADDs chronic neuronal silencing, MC1 tau inclusions; conditions: CNO weekly for 2 weeks starting one week after K18 seeding
# Protocol: 4R-P301S-HaloTag iPSCs were differentiated into neurons on coverslips as described. Neurons were transduced with hSyn-hM4Di-mCherry lentivirus on D6. This lentiviral construct was made using the 3rd generation lentiviral plasmid FUGW (Addgene, 14883), where the PacI+EcoRI fragment was replaced by hSyn-hM4D(Gi)-mCherry. pAAV-hSyn-hM4D(Gi)-mCherry was a gift from Bryan Roth (Addgene, 50475; http://n2t.net/addgene). The medium was changed on D7, and neurons were seeded with […] K18-tau fibrils. Neurons were maintained as described. Beginning at D14, clozapine-N-oxide (CNO; Tocris) was included in weekly media changes for a final concentration of […]. Neurons were fixed and stained with MC1 on D29. For MC1 quantification, stained neurons were imaged with a fluorescence microscope (Keyence BZ-X710). A 20× objective was used to acquire a series of 10 Z-stack images per coverslip. To validate the neuronal silencing effect of CNO by calcium imaging, 4R-P301S neurons were differentiated and transduced with hSyn-hM4Di-mCherry and hSyn-GCaMP8f lentivirus on D6. At D36, JFX-549 was added to neurons and prepared for imaging as described above. Exposure time was set to 20 milliseconds. Neurons were perfused with 10 μM CNO at 60 seconds and calcium traces in one field were recorded for 400 seconds.
# [3] = tested on: tau inclusion in K18-seeded 4R-P301S neurons; assay: UBA5 inhibitor treatment, flow cytometry of MC1+ tau inclusions; conditions: for tau inclusion induced by K18 seeding (MC1+/DAPI+ neurons) compared with control treatment group: treated Day 5, 3.0 ug/mL K18 Day 7, FACS Day 21
# Protocol: Pre-differentiation of human iPSCs into neurons was initiated by plating 1.5×10^6 iPSCs in one well Matrigel-coated 6-well plates with Knockout DMEM/F-12 media containing doxycycline ([…]), N2 supplement, non-essential amino acids, brain-derived neurotrophic factor (10 ng/mL, Peprotech), neurotrophin-3 (10 ng/mL, PeproTech) and ROCK inhibitor (Y-27632, Cayman chemicals). The media was replaced the next day without ROCK inhibitor, and pre-differentiation was maintained for a total of three days. On day 0, the pre-differentiated precursor cells were dissociated with Accutase and re-plated generally onto Laminin-coated coverslips (Neuvitro) at 1.5×10^5 cells/coverslip or 12-well tissue culture plates (Corning) at 3.8×10^5 cells/well for the growth of neuronal cultures in Neurobasal Plus media containing B27 supplement, Glutamax, BDNF (10 ng/mL) and NT3 (10 ng/mL) with doxycycline (2 μg/mL). Half of the medium was replaced on day 3, as well as on day 7 with the removal of doxycycline from the fresh media. The medium volume was doubled on day 21. Thereafter, one-half of the medium was replaced with fresh medium weekly until the cells were collected. All human iPS cell lines used in this work have been regularly tested for mycoplasma (Lonza) and karyotyped (MSK Molecular Cytogenetics Core).
# Myc-tagged K18-P301L Tau was expressed and purified as previously described2. Briefly, protein expression was induced in Terrific Broth containing the chemical chaperone betaine (10 mM) and IPTG (500 uM) for 3 hrs at 30° C. Tau was purified via the following major steps: mechanical lysis, boiling, centrifugation, and cation exchange. Purified Tau fractions were dialyzed into aggregation assay buffer (PBS pH 7.4, 2 mM DTT). To minimize potential endotoxin contamination, purified tau was incubated with poly(epsilon-lysine) conjugated resin (Pierce), then tested post-treatment for endotoxin levels using the ToxinSensor™ Chromogenic LAL Endotoxin Assay Kit (Genscript). […] The concentration of aggregated tau was quantified by Pierce BCA assay. […]
# [4] = tested on: 4R-P301S iPSC-derived neurons; assay: Toxic effect of UBA5 inhibitor on iPSC-derived neurons; conditions: 5 uM, 10 uM and 20 uM (data not shown)
# Protocol: 4R-P301S iPSCs were seeded at the density of 1.2×10^7 per plate in 10-cm plates in pre-differentiation medium. On day 0, pre-differentiated neurons were replated at the density of 4×10^5 per well in poly-D-lysine (PDL) pre-coated 12-well plates (Corning) in maturation medium. On day 5, iPSCs differentiated neurons were treated with three UBA5 inhibitors separately ay various concentrations. On day 7, iPSCs differentiated neurons were treated with […] K18 fibrils for 2 weeks. On day 21, neurons in 12-well plates were collected for flow cytometry analysis.
Compound,neuronal activities (calcium imaging) [1],levels of Tau inclusions (MC1+ aggregates) compared with vehicle treatment [2],tau inclusion induced by K18 seeding (MC1+/DAPI+ neurons) compared with control treatment group ([3]; 0.1 uM),tau inclusion induced by K18 seeding (MC1+/DAPI+ neurons) compared with control treatment group ([3]; 1 uM),"percentage of MC1+ cells (tau inclusion induced by K18 treatment) ([3]; D21(7+14), 3 μg/ml K18-seeded 4R-P301S neurons pre-treated at various concentrations, FIG. 15 legend)",toxic effect on neurons [4]
"C[N+]1([O-])CCN(C2=Nc3cc(Cl)ccc3Nc3ccccc32)CC1 [CNO, clozapine-N-oxide]",silenced,significantly reduced,,,,
"CC(=O)c1c(O)c(C)c(O)c2c1OC1=CC(=O)/C(=C(/C)N)C(=O)[C@@]12C [Usenamine A, (2E,9bR)-6-acetyl-2-(1-aminoethylidene)-7,9-dihydroxy-8,9b-dimethyldibenzouran-1,3-dione]",,,failed to prevent tau inclusion,successfully prevented tau inclusion,prevented the tau inclusion,exerted toxic effect on neurons
